{
  "source": "patent US12145923B2",
  "about": "“Tetrahydroisoquinoline compound, preparation method therefor, pharmaceutical composition containing same, and use thereof” (SHANGHAI INSTITUTE OF MATERIA MEDICA, CHINESE ACADEMY OF …, priority 2018, dated 2024)",
  "key": {"[1]": {"experiment": "Rat pharmacokinetic test", "assay_type": "in vivo", "protocol": "Six male healthy rats weighing 150-200 g were randomly divided into 2 groups (n=3). Compounds 14, 16, 17, 18, 22 and 29 of the present invention were administered by gavage and intravenous injection, respectively, at a administration volume of 10 mL/kg. The drug was formulated with DMSO/Tween 80/saline solution (5:5:90, v/v/v). The rats were fasted for 12 h before testing, water ad lib, and uniformly feeded 2 h after administration.\ngavage administration: 0.25, 0.5, 1.0, 2.0, 4.0, 6.0, 8.0 and 24 h after administration:\nintravenous administration: 5 min, 0.25, 0.5, 1.0, 2.0, 4.0, 6.0, 8.0 and 24 h after administration;\n0.3 mL of venous blood was collected at the above time points via the rat eye vein venous plexus, placed in heparinized test tube, centrifuged at 11000 rpm for 5 min. Plasma was separated and frozed in a −20° C. refrigerator.\nThe concentration of compounds in rat plasma was determined by LC/MS/MS. The pharmacokinetic parameters after administration were calculated by a non-compartmental model of DAS 3.0 software."}, "[2]": {"experiment": "Cytotoxicity on RAW 264.7 cells (CCK-8 method)", "assay_type": "cell-based, mouse", "details": "mouse, RAW 264.7 cells; drug concentration required to cause median cytotoxicity, RAW 264.7", "experimental": "(§1) Mouse RAW 264.7 cells were purchased from American Type Culture Collection (Manassas, VA, USA), and cultivated in DMEM culture medium (Hyclone, South Logan, UT, USA) containing 10% fetal bovine serum (Hyclone, South Logan, UT, USA). Cells were collected and counted before use, and inoculated in a 96-well plate (Corning, NY, USA) at 1×10^5/well. […] 20 μl of CCK-8 solution (Dojindo, Kumamoto, Japan) was added at 30 min before the end of the culture. After the cultivation was ended, the absorbance OD value was measured at 450 nm (reference 650 nm) on amicroplate reader (Molecular Devices, Sunnyvale, CA, USA). The toxicity of the compound on RAW 264.7 cells was calculated by dividing the OD value of the test sample by the OD value of the cell control well, which was labeled as the cell survival rate M %."}, "[3]": {"test_system": "RAW 264.7 cells", "experiment": "Cytotoxicity on RAW 264.7 cells (CCK-8 method)", "assay_type": "cell-based, mouse", "experimental": "as §1"}, "[4]": {"details": "male, plasma, intravenous injection, 10 mg/kg"}, "[5]": {"details": "male, plasma, po, gavage, 20 mg/kg"}},
  "note": "Like-named read-outs stand apart in the source and are kept apart here.",
  "data": [
    {"molecule": "CCOc1cc2c(cc1OC)CCN(C=O)[C@H]2CCc1c[nH]c2cc(C)ccc12", "note": "[(S)-C7, (S)-7-ethoxy-6-methoxy-1-(2-(6-methyl-1H-indol-3-yl)ethyl)-3,4-dihydroisoquinoline-2(1H)-formaldehyde]", "values": [
      {"measurement": "AUC0-t", "setting": "[1]; gavage, 20 mg/kg", "value": 9232.3, "unit": "ng·h/mL"},
      {"measurement": "AUC0-t", "setting": "[1]; intravenous injection, 10 mg/kg", "value": 6761.8, "unit": "ng·h/mL"},
      {"measurement": "AUC(0-inf)", "setting": "[1]; [4]", "value": 6760, "unit": "ng·h/mL"},
      {"measurement": "MRT", "setting": "[1]; [4]", "value": 0.9, "unit": "h"},
      {"measurement": "half-life", "setting": "[1]; [4]", "value": 0.2, "unit": "h"},
      {"measurement": "Vd", "setting": "[1]; male, plasma, intravenous injection, 10 mg/kg, read-out: Vss", "value": 0.53, "unit": "L/kg"},
      {"measurement": "AUC0-t", "setting": "[1]; male, plasma, iv, 10 mg/kg, intravenous injection, 10 mg/kg, read-out: AUC0-t", "value": 6760, "unit": "ng·h/mL"},
      {"measurement": "bioavailability", "setting": "[1]; male, plasma, oral, gavage 20 mg/kg vs intravenous 10 mg/kg, dosage standardized, read-out: F (absolute bioavailability)", "value": 68.3, "unit": "%"},
      {"measurement": "Cmax", "setting": "[1]; male, plasma, po, 20 mg/kg, gavage", "value": 2380, "unit": "ng/mL"},
      {"measurement": "AUC0-t", "setting": "[1]; male, plasma, po, 20 mg/kg, gavage, 20 mg/kg, read-out: AUC0-t", "value": 9230, "unit": "ng·h/mL"},
      {"measurement": "AUC(0-inf)", "setting": "[1]; [5]", "value": 9230, "unit": "ng·h/mL"},
      {"measurement": "MRT", "setting": "[1]; [5]", "value": 2.6, "unit": "h"},
      {"measurement": "Tmax", "setting": "[1]; [5]", "value": 1, "unit": "h"},
      {"measurement": "half-life", "setting": "[1]; [5]", "value": 1, "unit": "h"},
      {"measurement": "CC50 at 4 h", "setting": "[2]", "value": "> 50", "unit": "µM"},
      {"measurement": "Cell survival rate/%", "setting": "[3]; RAW 264.7, 0.5 μM", "value": 71.3, "unit": "%"},
      {"measurement": "Cell survival rate/%", "setting": "[3]; RAW 264.7, 5 μM", "value": 93.4, "unit": "%"},
      {"measurement": "Cell survival rate/%", "setting": "[3]; RAW 264.7, 50 μM", "value": 96.1, "unit": "%"}
    ]}
  ]
}
